From patent publication US5464861A, “2-thioindoles (selenoindoles) and related disulfides (selenides) which inhibit protein tyrosine kinases and which have antitumor properties” (Warner-Lambert, priority 1993, dated 1995)
Read-outs that look alike come from different tables or passages of the source.

How the values were obtained:
[1] = target: T1, human PDGF β receptor intracellular tyrosine kinase domain (Homo sapiens, UniProt P09619); assay: PDGF receptor tyrosine kinase inhibition assay (P^32 incorporation in Glu-Tyr); format: biochemical; settings: for inhibition at 100 µM: read-out: % Inhibition at 100 μM (PDGFR TK); for IC50: Table 2, PDGF-R, IC50 entries, read-out: IC50 (PDGFR TK)
T1 construct: human PDGF β receptor intracellular tyrosine kinase domain; made in house; host or cells: SF9 insect cells, recombinant baculovirus; cell lysates used
Procedure: Recombinant baculovirus containing human PDGF β receptor intracellular tyrosine kinase domain was used to infect SF9 cells to overexpress the protein, and cell lysates were used for the assay. The ability of the tyrosine kinase to phosphorylate glutamate tyrosine substrate in the presence of P^32 -ATP and inhibitor was measured by counting the incorporation of P^32 in Glu-Tyr in TCAprecipitable material.

[2] = system: Swiss 3T3 mouse fibroblasts; assay: Growth inhibition assay, Swiss 3T3 fibroblasts; format: cell-based
Procedure: Swiss 3T3 mouse fibroblasts were maintained in dMEM/F12 media containing 10% fetal calf serum. […] The cells were grown at 37° C. under 5% CO2 for 72 hours and then counted by Coulter counter. The data were expressed as the concentration of inhibitor necessary to decrease the growth rate by 50%.

[3] = target: T2, epidermal growth factor receptor tyrosine kinase (Homo sapiens, UniProt P00533); assay: EGF receptor tyrosine kinase assay (P^32 incorporation in GAT); format: biochemical; settings: for inhibition at 100 µM: EGRF-R, read-out: % Inhibition at 100 μM (EGFR TK)
T2 construct: A native 170,000 epidermal growth factor receptor-kinase complex from shed plasma membrane vesicles; endogenous in cells
Summary of the method: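 Receptor pre-activated with 150 ng EGF for 10 min at room temperature. ATP with or without compound then added and incubated 10 min at room temperature.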

[4] = Swiss-3T3, 72 h, read-out: IC50 growth inhibition
[5] = Table 2, EGRF-R, IC50 entries, read-out: IC50 (EGFR TK)
[6] = Swiss 3T3, 72 hours, Table 2, read-out: IC50 growth inhibition

T2 sequence (P00533 25-1210): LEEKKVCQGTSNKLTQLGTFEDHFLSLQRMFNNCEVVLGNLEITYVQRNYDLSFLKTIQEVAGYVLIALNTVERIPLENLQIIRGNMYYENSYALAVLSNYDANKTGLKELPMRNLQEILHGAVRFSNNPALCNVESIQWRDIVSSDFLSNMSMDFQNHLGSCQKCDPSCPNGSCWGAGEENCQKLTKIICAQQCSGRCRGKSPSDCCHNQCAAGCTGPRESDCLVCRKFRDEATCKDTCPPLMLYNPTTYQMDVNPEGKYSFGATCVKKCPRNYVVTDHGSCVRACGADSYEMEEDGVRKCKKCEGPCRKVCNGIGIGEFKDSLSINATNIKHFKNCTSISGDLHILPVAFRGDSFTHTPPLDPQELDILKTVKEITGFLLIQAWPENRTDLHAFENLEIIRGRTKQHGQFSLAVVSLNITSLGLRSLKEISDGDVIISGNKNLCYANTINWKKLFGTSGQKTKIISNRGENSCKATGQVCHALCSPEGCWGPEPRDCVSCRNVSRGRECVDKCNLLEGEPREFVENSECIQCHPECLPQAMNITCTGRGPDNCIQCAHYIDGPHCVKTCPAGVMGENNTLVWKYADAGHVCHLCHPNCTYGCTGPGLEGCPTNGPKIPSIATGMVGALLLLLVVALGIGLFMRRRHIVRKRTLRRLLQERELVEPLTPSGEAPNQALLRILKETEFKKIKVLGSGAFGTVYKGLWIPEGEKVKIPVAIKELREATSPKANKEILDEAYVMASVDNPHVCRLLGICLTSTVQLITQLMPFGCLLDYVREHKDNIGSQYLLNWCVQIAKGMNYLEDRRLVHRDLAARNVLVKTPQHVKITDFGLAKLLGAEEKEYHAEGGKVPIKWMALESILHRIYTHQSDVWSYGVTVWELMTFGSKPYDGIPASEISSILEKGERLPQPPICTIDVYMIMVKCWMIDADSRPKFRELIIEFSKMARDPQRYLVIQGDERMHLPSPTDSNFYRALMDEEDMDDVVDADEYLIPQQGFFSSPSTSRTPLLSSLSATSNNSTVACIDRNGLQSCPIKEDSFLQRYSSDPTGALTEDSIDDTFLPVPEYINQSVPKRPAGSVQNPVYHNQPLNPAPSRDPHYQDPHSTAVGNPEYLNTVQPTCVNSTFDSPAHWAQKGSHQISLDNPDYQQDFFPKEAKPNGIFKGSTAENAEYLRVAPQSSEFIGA
T2 sequence (P01133 971-1023 partner limits assumed): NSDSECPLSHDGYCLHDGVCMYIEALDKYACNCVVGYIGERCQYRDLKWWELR
T1 sequence (P09619 554-1106 limits assumed): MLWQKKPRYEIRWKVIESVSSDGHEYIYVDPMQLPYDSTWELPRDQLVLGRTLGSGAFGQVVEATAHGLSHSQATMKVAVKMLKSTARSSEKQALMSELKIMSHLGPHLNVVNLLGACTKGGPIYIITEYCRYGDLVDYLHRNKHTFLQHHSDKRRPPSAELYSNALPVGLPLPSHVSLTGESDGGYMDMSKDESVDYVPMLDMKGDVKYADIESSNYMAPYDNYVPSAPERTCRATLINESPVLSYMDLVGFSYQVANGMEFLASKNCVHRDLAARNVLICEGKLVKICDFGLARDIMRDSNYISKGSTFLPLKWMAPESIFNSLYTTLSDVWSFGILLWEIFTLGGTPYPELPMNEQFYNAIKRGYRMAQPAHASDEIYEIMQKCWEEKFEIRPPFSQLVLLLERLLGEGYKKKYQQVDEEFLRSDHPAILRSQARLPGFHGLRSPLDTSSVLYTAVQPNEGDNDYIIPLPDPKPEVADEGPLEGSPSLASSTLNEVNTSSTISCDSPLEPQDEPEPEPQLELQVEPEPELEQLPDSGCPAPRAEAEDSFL

| Compound | inhibition at 100 µM ([1]; at 100 μM, PDGF-R) [%] | IC50 [3, 5] [µM] | IC50 [2, 6] [µM] | inhibition at 100 µM [3] [%] | further results |
| --- | --- | --- | --- | --- | --- |
| NC(Cc1c(SSc2[nH]c3ccccc3c2CC(N)C(=O)NCc2ccccc2)[nH]c2ccccc12)C(=O)NCc1ccccc1 (racemic) [Compound 62, 2,2'-dithiobis[α-amino-N-benzyl-3-(3-indolyl)propanamide]] | 71 | 6 |  |  | IC50 [2, 4]: 5.3 µM |
| Cn1c(SSc2c(CC(=O)O)c3ccccc3n2C)c(CC(=O)O)c2ccccc21 [Compound 32, bis[1-methylindolyl-3-acetic acid-(2)]-disulfide] | 4.7 | 34.5 | 36 |  |  |
| CCOC(=O)Cc1c(SSc2c(CC(=O)OCC)c3ccccc3n2C)n(C)c2ccccc12 [Compound 33, bis[ethyl 1-methylindolyl-3-acetate-(2)]disulfide] | 16.7 | 39 |  |  | IC50 [2, 4]: 3 µM |
| O=C(Cc1c(SSc2[nH]c3ccccc3c2CC(=O)NCc2ccccc2)[nH]c2ccccc12)NCc1ccccc1 [Compound 34, 2,2'-dithiobis[N-benzyl 2-(3-indolyl)acetamide]] | 12.8 | 38 | 2.7 |  |  |
| CCOC(=O)CCc1c(SSc2[nH]c3ccccc3c2CCC(=O)OCC)[nH]c2ccccc12 [Compound 38, bis[ethylindolyl-3-propanoate-(2)] disulfide] |  |  | 1.6 | 36.5 |  |
| COC(=O)CCc1c(SSc2[nH]c3ccccc3c2CCC(=O)OC)[nH]c2ccccc12 [Compound 39] |  | 20.6 | 7.4 |  |  |
| COC(=O)CCc1c(SSc2c(CCC(=O)OC)c3ccccc3n2C)n(C)c2ccccc12 [Compound 40, 2,2'-dithiobis[methyl 3-(1-methyl-3-indolyl)propanoate]] |  |  | 5.2 | 16.3 |  |
| Cc1ccc2[nH]c(SSc3[nH]c4ccc(C)cc4c3CCC(=O)O)c(CCC(=O)O)c2c1 [Compound 41, bis[5-methylindolyl-3-propanoic acid-(2)]disulfide] |  | 8.4 | > 25 |  |  |
| CCOC(=O)CCc1c(SSc2[nH]c3cc(C)ccc3c2CCC(=O)OCC)[nH]c2cc(C)ccc12 [Compound 44, bis[ethyl 6-methylindolyl-3-propanoate-(2)] disulfide] | 5 |  | 2.4 | 16.6 |  |
| CCOC(=O)CCc1c(SSc2[nH]c3c(C)cccc3c2CCC(=O)OCC)[nH]c2c(C)cccc12 [Compound 46, bis[ethyl 7-methylindolyl-3-propanoate-(2)] disulfide] |  |  | 2.7 | 11.4 |  |
| O=C(CCc1c(SSc2[nH]c3ccccc3c2CCC(=O)NCc2ccccc2)[nH]c2ccccc12)NCc1ccccc1 [Compound 47] |  | 0.85 | 6 |  |  |
| COC(=O)CCCc1c(SSc2c(CCCC(=O)OC)c3ccccc3n2C)n(C)c2ccccc12 [Compound 68, bis[methyl 1-methylindolyl-3-butanoate-(2)]disulfide] |  |  | 1.8 | 14 |  |
| CCn1c(SSc2c(C(=O)Nc3ccccc3)c3ccccc3n2CC)c(C(=O)Nc2ccccc2)c2ccccc21 [Compound 71, bis[N-phenyl 1-ethylindolyl-3-carboxamide-(2)]disulfide] |  |  |  | 20 | inhibition at 100 µM [1]: 5%; IC50 [2, 4]: 52 µM |
| Cn1c(SSc2c(C(=O)Nc3ccccc3)c3cc(Cl)ccc3n2C)c(C(=O)Nc2ccccc2)c2cc(Cl)ccc21 [Compound 73, bis[N-phenyl 5-chloro-1-methylindolyl-3-carboxamide-(2)]disulfide] | 21 | 4.3 | 9.3 |  |  |
| Cc1cccc2c1c(C(=O)Nc1ccccc1)c(SSc1c(C(=O)Nc3ccccc3)c3c(C)cccc3n1C)n2C [Compound 75, bis[N-phenyl 1,4-dimethylindolyl-3-carboxamide-(2)]disulfide] | 3 |  | 4 | 6 |  |
| Cc1ccc2c(c1)c(C(=O)Nc1ccccc1)c(SSc1c(C(=O)Nc3ccccc3)c3cc(C)ccc3n1C)n2C [Compound 76, bis [N-phenyl 1,5-dimethylindolyl-3-carboxamide-(2)] disulfide] | 19 |  | 22 | 7 |  |
| COc1cccc2c1c(C(=O)Nc1ccccc1)c(SSc1c(C(=O)Nc3ccccc3)c3c(OC)cccc3n1C)n2C [Compound 79, bis [N-phenyl 4-methoxy-1-methyl indolyl-3-carboxamide-(2)]disulfide] | 20 |  | 1.9 | 11 |  |
| COc1ccc2c(C(=O)Nc3ccccc3)c(SSc3c(C(=O)Nc4ccccc4)c4ccc(OC)cc4n3C)n(C)c2c1 [Compound 81, bis[N-phenyl 6-methoxy-1-methylindolyl-3-carboxamide-(2)]disulfide] | 2 | 3.6 | 17 |  |  |
| COc1cccc2c(C(=O)Nc3ccccc3)c(SSc3c(C(=O)Nc4ccccc4)c4cccc(OC)c4n3C)n(C)c12 [Compound 82, bis[N-phenyl 7-methoxy-1-methylindolyl-3-carboxamide-(2)]disulfide] |  | 6.5 | 24 |  |  |
| Cn1c(SSc2c(C(=O)Nc3ccccc3)c3cccnc3n2C)c(C(=O)Nc2ccccc2)c2cccnc21 [Compound 83, 2,2'-dithiobis [N-phenyl-1-methyl-7-azaindolyl-3-carboxamide]] | 57 | 22.3 | 10 |  |  |
| CNC(=O)c1c(SSc2c(C(=O)NC)c3ccccc3n2C)n(C)c2ccccc12 [Compound 97, bis[N-methyl 1-methylindolyl-3-carboxamide-(2)]disulfide] |  | 10.1 | 1.8 |  | IC50 [1]: 28.1 µM |
| Cn1c(SSc2c(C(=O)NCc3ccccc3)c3ccccc3n2C)c(C(=O)NCc2ccccc2)c2ccccc21 [Compound 98, bis[N-benzyl 1-methylindolyl-3-carboxamide-(2)]disulfide] | 9 | 1.5 | 5 to 12 |  |  |
| Cc1ccc(S(=O)(=O)c2c(SSc3[nH]c4ccccc4c3S(=O)(=O)c3ccc(C)cc3)[nH]c3ccccc23)cc1 [Compound 99, bis[3-(4-methylphenylsulfonyl)-2-indolyl]disulfide] | 19 | 40 |  |  | IC50 [2, 4]: 2.8 µM |
| Cc1c(SSc2c(C)c3ccccc3n2C)n(C)c2ccccc12 [Compound 103] |  |  |  | 7 | IC50 [2, 4]: 3.8 µM |
| CN(C)CCNC(=O)c1c(SSc2c(C(=O)NCCN(C)C)c3ccccc3n2C)n(C)c2ccccc12 [Compound 115, 2,2'-dithiobis [N-(N,N-dimethylaminoethyl) 1-methylindolyl-3-carboxamide]] |  | 26 | > 50 |  | IC50 [1]: 19.7 µM |
| CNC(=O)c1c([Se][Se]c2c(C(=O)NC)c3ccccc3n2C)n(C)c2ccccc12 [Compound 131, 2,2'-diselenobis [N,1-dimethyl-1H -indole-3-carboxamide]] |  |  |  |  | IC50 [2, 4]: 5.5 µM; IC50 [3]: 5.8 µM |
| CCN(CC)CCNC(=O)c1c([Se][Se]c2c(C(=O)NCCN(CC)CC)c3ccccc3n2C)n(C)c2ccccc12 [Compound 132, 2,2'-diselenobis [N-[2-(diethylamino)ethyl]-1-methyl-1H-indole-3-carboxamide]] |  |  |  |  | IC50 [2, 4]: 20 µM; IC50 ([3]; read-out: IC50 (EGFR TK)): 4.7 µM |
| CNC(=O)c1c([Se][Se]c2[nH]c3ccccc3c2C(=O)NC)[nH]c2ccccc12 [Compound 133, 2,2'-diselenobis[N-methyl-1H-indole-3-carboxamide]] |  |  |  |  | IC50 [2, 4]: < 5 µM; IC50 ([3]; read-out: IC50 (EGFR TK)): 13 µM |
